# Data: ChEMBL document CHEMBL2440080, “Synthesis and biological evaluation of novel acylhydrazone derivatives as potential antitumor agents” (Bioorg Med Chem, 2013)
# Experiments:
# Type in all cases: functional
# T47D = assay: Cytotoxicity against human T47D cells after 48 hrs by sulforhodamine B assay
# MOLT-4 = assay: Cytotoxicity against human MOLT4 cells after 48 hrs by sulforhodamine B assay; conditions: MOLT-4, 48 h
# SNB-75 = assay: Cytotoxicity against human SNB75 cells after 48 hrs by sulforhodamine B assay; conditions: SNB-75, 48 h
# HCC 2998 = assay: Cytotoxicity against human HCC2998 cells after 48 hrs by sulforhodamine B assay; conditions: HCC 2998, 48 h
# SNB-19 = assay: Cytotoxicity against human SNB19 cells after 48 hrs by sulforhodamine B assay; conditions: SNB-19, 48 h
# U-251 = assay: Cytotoxicity against human U251 cells after 48 hrs by sulforhodamine B assay; conditions: U-251, 48 h
# NCI-H322M = assay: Cytotoxicity against human NCI-H322M cells after 48 hrs by sulforhodamine B assay
# NCI-H460 = assay: Cytotoxicity against human NCI-H460 cells after 48 hrs by sulforhodamine B assay; conditions: NCI-H460, 48 h
# OVCAR-4 = assay: Cytotoxicity against human OVCAR4 cells after 48 hrs by sulforhodamine B assay; conditions: OVCAR-4, 48 h
# SW-620 = assay: Cytotoxicity against human SW620 cells after 48 hrs by sulforhodamine B assay; conditions: SW-620, 48 h
# HCT-116 = assay: Cytotoxicity against human HCT116 cells after 48 hrs by sulforhodamine B assay; conditions: HCT-116, 48 h
# HL-60(TB) = assay: Cytotoxicity against human HL-60(TB) cells after 48 hrs by sulforhodamine B assay; conditions: HL-60, 48 h
# MCF7 = assay: Cytotoxicity against human MCF7 cells after 48 hrs by sulforhodamine B assay; conditions: MCF7, 48 h
# OVCAR-3 = assay: Cytotoxicity against human OVCAR3 cells after 48 hrs by sulforhodamine B assay; conditions: OVCAR-3, 48 h
# UACC-257 = assay: Cytotoxicity against human UACC257 cells after 48 hrs by sulforhodamine B assay; conditions: UACC-257, 48 h
# A498 = assay: Cytotoxicity against human A498 cells after 48 hrs by sulforhodamine B assay; conditions: A498, 48 h
# UACC-62 = assay: Cytotoxicity against human UACC62 cells after 48 hrs by sulforhodamine B assay; conditions: UACC-62, 48 h
# SN12C = assay: Cytotoxicity against human SN12C cells after 48 hrs by sulforhodamine B assay
# [1] = Cytotoxicity against human Hs 578T cells after 48 hrs by sulforhodamine B assay
# CCRF-CEM = assay: Cytotoxicity against human CCRF-CEM cells after 48 hrs by sulforhodamine B assay
# IGROV-1 = assay: Cytotoxicity against human IGROV1 cells after 48 hrs by sulforhodamine B assay; conditions: IGROV-1, 48 h
# OVCAR-5 = assay: Cytotoxicity against human OVCAR5 cells after 48 hrs by sulforhodamine B assay; conditions: OVCAR-5, 48 h
# M14 = assay: Cytotoxicity against human M14 cells after 48 hrs by sulforhodamine B assay; conditions: M14, 48 h
# HCT-15 = assay: Cytotoxicity against human HCT15 cells after 48 hrs by sulforhodamine B assay; conditions: HCT-15, 48 h
# NCI-H522 = assay: Cytotoxicity against human NCI-H522 cells after 48 hrs by sulforhodamine B assay; conditions: NCI-H522, 48 h
# OVCAR-8 = assay: Cytotoxicity against human OVCAR8 cells after 48 hrs by sulforhodamine B assay; conditions: OVCAR-8, 48 h
# HOP-62 = assay: Cytotoxicity against human HOP62 cells after 48 hrs by sulforhodamine B assay; conditions: HOP-62, 48 h
# A549 = assay: Cytotoxicity against human A549/ATCC cells after 48 hrs by sulforhodamine B assay; conditions: A549, 48 h
# HT-29 = assay: Cytotoxicity against human HT-29 cells after 48 hrs by sulforhodamine B assay; conditions: HT-29, 48 h
# CAKI-1 = assay: Cytotoxicity against human CAKI-1 cells after 48 hrs by sulforhodamine B assay; conditions: CAKI-1, 48 h
# KM12 = assay: Cytotoxicity against human KM12 cells after 48 hrs by sulforhodamine B assay; conditions: KM12, 48 h
# RPMI-8226 = assay: Cytotoxicity against human RPMI8226 cells after 48 hrs by sulforhodamine B assay; conditions: RPMI-8226, 48 h
# [2] = Cytotoxicity against human EKVX cells after 48 hrs by sulforhodamine B assay
# ACHN = assay: Cytotoxicity against human ACHN cells after 48 hrs by sulforhodamine B assay
# PC-3 = assay: Cytotoxicity against human PC3 cells after 48 hrs by sulforhodamine B assay; conditions: PC-3, 48 h
# SF-268 = assay: Cytotoxicity against human SF268 cells after 48 hrs by sulforhodamine B assay; conditions: SF-268, 48 h
# SK-MEL-5 = assay: Cytotoxicity against human SK-MEL-5 cells after 48 hrs by sulforhodamine B assay; conditions: SK-MEL-5, 48 h
# SR = assay: Cytotoxicity against human SR cells after 48 hrs by sulforhodamine B assay
# MDA-MB-435 = assay: Cytotoxicity against human MDA-MB-435 cells after 48 hrs by sulforhodamine B assay; conditions: MDA-MB-435, 48 h
# SF-295 = assay: Cytotoxicity against human SF295 cells after 48 hrs by sulforhodamine B assay; conditions: SF-295, 48 h
# 786-0 = assay: Cytotoxicity against human 786-0 cells after 48 hrs by sulforhodamine B assay; conditions: 786-0, 48 h
# MDA-MB-231 = assay: Cytotoxicity against human MDA-MB-231 cells after 48 hrs by sulforhodamine B assay; conditions: MDA-MB-231, 48 h
# HOP-92 = assay: Cytotoxicity against human HOP92 cells after 48 hrs by sulforhodamine B assay; conditions: HOP-92, 48 h
# SF-539 = assay: Cytotoxicity against human SF539 cells after 48 hrs by sulforhodamine B assay; conditions: SF-539, 48 h
# COLO 205 = assay: Cytotoxicity against human COLO205 cells after 48 hrs by sulforhodamine B assay; conditions: COLO 205, 48 h
# Malme-3M = assay: Cytotoxicity against human MALME-3M cells after 48 hrs by sulforhodamine B assay
# NCI-H226 = assay: Cytotoxicity against human NCI-H226 cells after 48 hrs by sulforhodamine B assay; conditions: NCI-H226, 48 h
# SK-MEL-2 = assay: Cytotoxicity against human SK-MEL-2 cells after 48 hrs by sulforhodamine B assay; conditions: SK-MEL-2, 48 h
# SK-OV-3 = assay: Cytotoxicity against human SKOV3 cells after 48 hrs by sulforhodamine B assay; conditions: SK-OV-3, 48 h
# SK-MEL-28 = assay: Cytotoxicity against human SK-MEL-28 cells after 48 hrs by sulforhodamine B assay; conditions: SK-MEL-28, 48 h
# LOX IMVI = assay: Cytotoxicity against human LOXIMVI cells after 48 hrs by sulforhodamine B assay
# TK-10 = assay: Cytotoxicity against human TK10 cells after 48 hrs by sulforhodamine B assay; conditions: TK-10, 48 h
# RXF 393 = assay: Cytotoxicity against human RXF393 cells after 48 hrs by sulforhodamine B assay; conditions: RXF 393, 48 h
# UO-31 = assay: Cytotoxicity against human UO31 cells after 48 hrs by sulforhodamine B assay; conditions: UO-31, 48 h
# NCI/ADR-RES = assay: Cytotoxicity against human NCI/ADR-RES cells after 48 hrs by sulforhodamine B assay
# BT-549 = assay: Cytotoxicity against human BT549 cells after 48 hrs by sulforhodamine B assay; conditions: BT-549, 48 h
# NCI-H23 = assay: Cytotoxicity against human NCI-H23 cells after 48 hrs by sulforhodamine B assay; conditions: NCI-H23, 48 h
# DU-145 = assay: Cytotoxicity against human DU145 cells after 48 hrs by sulforhodamine B assay; conditions: DU-145, 48 h
compound,measurement,setting,value
CCN(CC)c1ccc(/C=N/NC(=O)c2cccc(Nc3ccnc(C(F)(F)F)c3)c2)c(O)c1,GI50,T47D,631 nM
same,GI50,MOLT-4,195 nM
same,GI50,SNB-75,257 nM
same,GI50,HCC 2998,182 nM
same,GI50,SNB-19,339 nM
same,GI50,U-251,200 nM
same,GI50,NCI-H322M,200 nM
same,GI50,NCI-H460,200 nM
same,GI50,OVCAR-4,158 nM
same,GI50,SW-620,324 nM
same,GI50,HCT-116,126 nM
same,GI50,HL-60(TB),316 nM
same,GI50,MCF7,245 nM
same,GI50,OVCAR-3,794 nM
same,GI50,UACC-257,275 nM
same,GI50,A498,479 nM
same,GI50,UACC-62,251 nM
same,GI50,SN12C,309 nM
same,GI50,[1],182 nM
same,GI50,CCRF-CEM,141 nM
same,GI50,IGROV-1,200 nM
same,GI50,OVCAR-5,501 nM
same,GI50,M14,229 nM
same,GI50,HCT-15,126 nM
same,GI50,NCI-H522,407 nM
same,GI50,OVCAR-8,398 nM
same,GI50,HOP-62,251 nM
same,GI50,A549,389 nM
same,GI50,HT-29,339 nM
same,GI50,CAKI-1,200 nM
same,GI50,KM12,398 nM
same,GI50,RPMI-8226,158 nM
same,GI50,[2],224 nM
same,GI50,ACHN,245 nM
same,GI50,PC-3,741 nM
same,GI50,SF-268,100 nM
same,GI50,SK-MEL-5,224 nM
same,GI50,SR,200 nM
same,GI50,MDA-MB-435,339 nM
same,GI50,SF-295,324 nM
same,GI50,786-0,240 nM
same,GI50,MDA-MB-231,316 nM
same,GI50,HOP-92,1000 nM
same,GI50,SF-539,263 nM
same,GI50,COLO 205,282 nM
same,GI50,Malme-3M,339 nM
same,GI50,NCI-H226,372 nM
same,GI50,SK-MEL-2,407 nM
same,GI50,SK-OV-3,407 nM
same,GI50,SK-MEL-28,115 nM
same,GI50,LOX IMVI,178 nM
same,GI50,TK-10,501 nM
same,GI50,RXF 393,398 nM
same,GI50,UO-31,166 nM
same,GI50,NCI/ADR-RES,1000 nM
same,GI50,BT-549,501 nM
same,GI50,NCI-H23,646 nM
same,GI50,DU-145,251 nM
